Laboratory results as given in ChEMBL document CHEMBL4229333, “Effects of rigidity on the selectivity of protein kinase inhibitors” (Eur J Med Chem, 2018).
The source made the active and inactive calls. No cut-off for these calls is given here.

Assays:
[1] = target: Receptor-type tyrosine-protein kinase FLT3 (Homo sapiens) (UniProt P36888); assay: Inhibition of FLT3 (unknown origin) at 1 uM by mobility shift microfluidics platform based assay relative to control
[2] = tested on: Leucine-rich repeat serine/threonine-protein kinase 2 (Homo sapiens), Q5S007 [G2019S]; assay: Inhibition of LRRK2 G2019S mutant (unknown origin) at 1 uM by mobility shift microfluidics platform based assay relative to control
[3] = target: Homeodomain-interacting protein kinase 4 (Homo sapiens) (UniProt Q8NE63); assay: Inhibition of HIPK4 (unknown origin) at 1 uM by mobility shift microfluidics platform based assay relative to control
[4] = target: Serine/threonine-protein kinase B-raf (Homo sapiens) (UniProt P15056); assay: Inhibition of BRAF (unknown origin) at 1 uM by mobility shift microfluidics platform based assay relative to control
[5] = target: Casein kinase I isoform gamma-3 (Homo sapiens) (UniProt Q9Y6M4); assay: Inhibition of CK1-gamma3 (unknown origin) at 1 uM by mobility shift microfluidics platform based assay relative to control
[6] = target: Mitogen-activated protein kinase kinase kinase kinase 5 (Homo sapiens) (UniProt Q9Y4K4); assay: Inhibition of MAP4K5 (unknown origin) at 1 uM by mobility shift microfluidics platform based assay relative to control
[7] = target: MAP kinase-activated protein kinase 2 (Homo sapiens) (UniProt P49137); assay: Inhibition of MAPKAPK2 (unknown origin) at 1 uM by mobility shift microfluidics platform based assay relative to control
[8] = target: Dual specificity tyrosine-phosphorylation-regulated kinase 4 (Homo sapiens) (UniProt Q9NR20); assay: Inhibition of DYRK4 (unknown origin) at 1 uM by mobility shift microfluidics platform based assay relative to control
Bcr/Abl fusion protein = Bcr/Abl fusion protein (Homo sapiens, UniProt P00519); assay: Inhibition of BCR-ABL (unknown origin) expressed in mouse BA/F3 cells assessed as reduction in ABL phosphorylation at Y412 residue incubated for 3 hrs by immunoblotting assay; type: cell-based
Homo sapiens = species on record: Homo sapiens; assay: Inhibition of CDK6/Cyclin D (unknown origin) at 1 uM by mobility shift microfluidics platform based assay relative to control
[9] = target: Inhibitor of nuclear factor kappa-B kinase subunit epsilon (Homo sapiens) (UniProt Q14164); assay: Inhibition of IKK-epsilon (unknown origin) at 1 uM by mobility shift microfluidics platform based assay relative to control
[10] = target: Protein kinase C theta type (Homo sapiens) (UniProt Q04759); assay: Inhibition of PKC-theta (unknown origin) at 1 uM by mobility shift microfluidics platform based assay relative to control
[11] = target: Tyrosine-protein kinase Yes (Homo sapiens) (UniProt P07947); assay: Inhibition of YES (unknown origin) at 1 uM by mobility shift microfluidics platform based assay relative to control
[12] = target: Tyrosine-protein kinase Fgr (Homo sapiens) (UniProt P09769); assay: Inhibition of FGR (unknown origin) at 1 uM by mobility shift microfluidics platform based assay relative to control
[13] = target: Maternal embryonic leucine zipper kinase (Homo sapiens) (UniProt Q14680); assay: Inhibition of MELK (unknown origin) at 1 uM by mobility shift microfluidics platform based assay relative to control
[14] = target: Serine/threonine-protein kinase D3 (Homo sapiens) (UniProt O94806); assay: Inhibition of PRKD3 (unknown origin) at 1 uM by mobility shift microfluidics platform based assay relative to control
[15] = target: T1, Tyrosine-protein kinase ABL1 (Homo sapiens, UniProt P00519); assay: Inhibition of ABL (unknown origin) by phosphocellulose paper disk assay
[16] = target: T1, Tyrosine-protein kinase ABL1; assay: Inhibition of ABL (unknown origin) at 30 nM by phosphocellulose paper disk assay
[17] = target: Ribosomal protein S6 kinase alpha-5 (Homo sapiens) (UniProt O75582); assay: Inhibition of MSK1 (unknown origin) at 1 uM by mobility shift microfluidics platform based assay relative to control

Sequence of Tyrosine-protein kinase Fgr (Homo sapiens) (P09769 2-529 limits assumed): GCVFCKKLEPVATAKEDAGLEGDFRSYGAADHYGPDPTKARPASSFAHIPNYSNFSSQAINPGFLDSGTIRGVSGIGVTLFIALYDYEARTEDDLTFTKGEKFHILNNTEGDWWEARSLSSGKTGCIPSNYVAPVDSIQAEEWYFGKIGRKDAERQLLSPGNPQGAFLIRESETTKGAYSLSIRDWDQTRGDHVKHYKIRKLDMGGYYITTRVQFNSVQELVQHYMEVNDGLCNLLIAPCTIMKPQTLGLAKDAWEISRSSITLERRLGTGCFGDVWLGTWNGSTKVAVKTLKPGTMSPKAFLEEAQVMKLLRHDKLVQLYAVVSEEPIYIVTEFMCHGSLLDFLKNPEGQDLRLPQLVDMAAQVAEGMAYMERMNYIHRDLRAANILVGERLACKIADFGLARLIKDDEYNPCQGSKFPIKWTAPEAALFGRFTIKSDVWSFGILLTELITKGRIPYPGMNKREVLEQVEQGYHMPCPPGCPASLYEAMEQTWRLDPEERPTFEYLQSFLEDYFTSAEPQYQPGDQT
Sequence of Leucine-rich repeat serine/threonine-protein kinase 2 (Homo sapiens), Q5S007 [G2019S] (Q5S007 whole entry G2019S): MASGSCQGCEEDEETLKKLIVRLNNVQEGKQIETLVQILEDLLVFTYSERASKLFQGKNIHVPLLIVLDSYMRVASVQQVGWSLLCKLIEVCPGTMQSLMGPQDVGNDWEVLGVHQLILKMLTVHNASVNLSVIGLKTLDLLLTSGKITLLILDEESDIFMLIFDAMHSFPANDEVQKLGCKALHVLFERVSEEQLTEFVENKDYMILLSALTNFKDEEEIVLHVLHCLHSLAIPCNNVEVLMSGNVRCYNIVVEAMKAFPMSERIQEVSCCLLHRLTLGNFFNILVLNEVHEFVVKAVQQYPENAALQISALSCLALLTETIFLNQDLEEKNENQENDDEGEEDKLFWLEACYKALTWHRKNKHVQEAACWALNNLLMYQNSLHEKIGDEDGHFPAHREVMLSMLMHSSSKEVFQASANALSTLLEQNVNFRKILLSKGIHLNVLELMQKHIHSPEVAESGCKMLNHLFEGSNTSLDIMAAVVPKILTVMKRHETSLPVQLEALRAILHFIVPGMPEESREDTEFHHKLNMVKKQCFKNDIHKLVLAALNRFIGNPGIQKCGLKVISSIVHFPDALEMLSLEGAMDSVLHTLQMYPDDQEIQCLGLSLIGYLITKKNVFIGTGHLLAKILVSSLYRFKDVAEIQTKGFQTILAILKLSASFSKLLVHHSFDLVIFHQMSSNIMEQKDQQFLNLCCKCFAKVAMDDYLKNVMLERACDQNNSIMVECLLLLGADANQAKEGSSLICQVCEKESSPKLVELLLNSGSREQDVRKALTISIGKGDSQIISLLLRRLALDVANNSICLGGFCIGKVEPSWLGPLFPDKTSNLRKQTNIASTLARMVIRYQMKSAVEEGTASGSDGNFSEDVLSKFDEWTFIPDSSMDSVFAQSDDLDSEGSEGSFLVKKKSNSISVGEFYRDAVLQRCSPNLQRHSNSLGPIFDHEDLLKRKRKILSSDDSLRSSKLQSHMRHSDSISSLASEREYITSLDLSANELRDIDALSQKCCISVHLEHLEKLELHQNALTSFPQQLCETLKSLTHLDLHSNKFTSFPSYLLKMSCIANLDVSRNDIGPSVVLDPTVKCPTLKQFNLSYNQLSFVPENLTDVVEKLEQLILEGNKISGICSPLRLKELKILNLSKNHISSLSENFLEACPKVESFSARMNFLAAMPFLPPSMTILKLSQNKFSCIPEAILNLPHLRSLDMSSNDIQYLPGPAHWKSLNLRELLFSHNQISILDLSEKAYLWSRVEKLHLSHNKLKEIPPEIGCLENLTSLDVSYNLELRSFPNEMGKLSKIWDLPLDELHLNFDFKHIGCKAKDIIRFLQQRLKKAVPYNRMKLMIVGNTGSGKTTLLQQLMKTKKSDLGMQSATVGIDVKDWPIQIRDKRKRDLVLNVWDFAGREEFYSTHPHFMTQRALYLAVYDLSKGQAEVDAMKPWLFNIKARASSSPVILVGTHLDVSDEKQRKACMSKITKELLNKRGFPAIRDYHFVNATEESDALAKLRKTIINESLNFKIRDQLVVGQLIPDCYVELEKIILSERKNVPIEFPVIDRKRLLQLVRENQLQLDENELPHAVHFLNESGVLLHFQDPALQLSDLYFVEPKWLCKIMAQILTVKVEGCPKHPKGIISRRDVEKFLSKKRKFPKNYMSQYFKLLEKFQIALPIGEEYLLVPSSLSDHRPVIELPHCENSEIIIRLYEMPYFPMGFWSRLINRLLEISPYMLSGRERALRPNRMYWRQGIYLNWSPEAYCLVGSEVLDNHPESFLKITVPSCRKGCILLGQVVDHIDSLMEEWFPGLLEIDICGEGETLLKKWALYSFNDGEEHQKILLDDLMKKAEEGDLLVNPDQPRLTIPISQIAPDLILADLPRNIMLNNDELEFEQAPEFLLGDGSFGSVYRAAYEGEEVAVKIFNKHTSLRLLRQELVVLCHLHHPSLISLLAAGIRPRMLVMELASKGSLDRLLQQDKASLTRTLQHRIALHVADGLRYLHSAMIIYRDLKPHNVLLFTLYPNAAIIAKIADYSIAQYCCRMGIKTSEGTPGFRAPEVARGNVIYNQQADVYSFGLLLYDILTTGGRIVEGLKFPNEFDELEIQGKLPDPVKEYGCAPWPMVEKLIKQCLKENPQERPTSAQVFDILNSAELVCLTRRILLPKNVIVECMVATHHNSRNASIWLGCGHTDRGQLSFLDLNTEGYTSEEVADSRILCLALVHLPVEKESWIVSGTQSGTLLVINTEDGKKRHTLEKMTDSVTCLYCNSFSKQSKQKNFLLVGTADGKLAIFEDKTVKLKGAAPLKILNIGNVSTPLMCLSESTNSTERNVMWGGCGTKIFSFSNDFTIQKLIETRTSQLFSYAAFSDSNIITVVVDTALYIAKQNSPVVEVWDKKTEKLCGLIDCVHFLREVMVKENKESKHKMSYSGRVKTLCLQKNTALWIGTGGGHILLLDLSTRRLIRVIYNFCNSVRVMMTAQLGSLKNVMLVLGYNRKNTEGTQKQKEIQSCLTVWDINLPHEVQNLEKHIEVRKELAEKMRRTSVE
Sequence of Maternal embryonic leucine zipper kinase (Homo sapiens) (Q14680 whole entry, looked up): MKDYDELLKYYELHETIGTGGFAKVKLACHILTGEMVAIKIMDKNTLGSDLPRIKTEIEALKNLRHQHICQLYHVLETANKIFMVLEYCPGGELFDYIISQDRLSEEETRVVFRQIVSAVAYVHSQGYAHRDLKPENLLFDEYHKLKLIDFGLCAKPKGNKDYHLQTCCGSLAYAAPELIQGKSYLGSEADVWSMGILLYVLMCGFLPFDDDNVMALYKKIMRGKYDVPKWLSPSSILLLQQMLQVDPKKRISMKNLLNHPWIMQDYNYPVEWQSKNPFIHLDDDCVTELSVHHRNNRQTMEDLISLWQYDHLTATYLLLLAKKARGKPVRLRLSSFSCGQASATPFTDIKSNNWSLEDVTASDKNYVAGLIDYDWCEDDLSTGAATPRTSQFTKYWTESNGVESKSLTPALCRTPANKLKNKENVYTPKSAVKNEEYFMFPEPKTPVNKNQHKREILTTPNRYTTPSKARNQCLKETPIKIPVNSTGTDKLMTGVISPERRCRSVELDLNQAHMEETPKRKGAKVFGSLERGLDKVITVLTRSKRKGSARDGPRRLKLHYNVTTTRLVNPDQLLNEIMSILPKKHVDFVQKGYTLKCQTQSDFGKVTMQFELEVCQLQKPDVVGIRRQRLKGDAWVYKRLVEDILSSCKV
Sequence of Serine/threonine-protein kinase B-raf (Homo sapiens) (P15056 whole entry, canonical isoform): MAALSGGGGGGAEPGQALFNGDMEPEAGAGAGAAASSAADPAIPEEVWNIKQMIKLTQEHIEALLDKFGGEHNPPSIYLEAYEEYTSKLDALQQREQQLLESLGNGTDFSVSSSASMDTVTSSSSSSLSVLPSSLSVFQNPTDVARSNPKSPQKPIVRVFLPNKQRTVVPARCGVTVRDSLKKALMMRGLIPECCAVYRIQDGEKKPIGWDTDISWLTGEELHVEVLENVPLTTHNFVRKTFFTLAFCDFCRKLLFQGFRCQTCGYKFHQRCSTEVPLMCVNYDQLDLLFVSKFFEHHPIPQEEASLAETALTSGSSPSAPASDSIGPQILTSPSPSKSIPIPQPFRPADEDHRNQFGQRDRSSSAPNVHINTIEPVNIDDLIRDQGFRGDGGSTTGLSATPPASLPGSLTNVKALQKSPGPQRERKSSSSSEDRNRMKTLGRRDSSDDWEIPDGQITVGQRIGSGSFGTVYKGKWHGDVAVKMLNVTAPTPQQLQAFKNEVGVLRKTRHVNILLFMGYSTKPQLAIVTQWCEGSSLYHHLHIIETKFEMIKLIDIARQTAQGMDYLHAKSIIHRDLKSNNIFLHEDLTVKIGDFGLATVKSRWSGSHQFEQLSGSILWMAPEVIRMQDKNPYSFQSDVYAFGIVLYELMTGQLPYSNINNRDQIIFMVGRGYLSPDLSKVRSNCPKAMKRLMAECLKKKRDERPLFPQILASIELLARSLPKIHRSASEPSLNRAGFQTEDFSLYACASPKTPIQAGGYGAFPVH
Sequence of MAP kinase-activated protein kinase 2 (Homo sapiens) (P49137 whole entry, looked up): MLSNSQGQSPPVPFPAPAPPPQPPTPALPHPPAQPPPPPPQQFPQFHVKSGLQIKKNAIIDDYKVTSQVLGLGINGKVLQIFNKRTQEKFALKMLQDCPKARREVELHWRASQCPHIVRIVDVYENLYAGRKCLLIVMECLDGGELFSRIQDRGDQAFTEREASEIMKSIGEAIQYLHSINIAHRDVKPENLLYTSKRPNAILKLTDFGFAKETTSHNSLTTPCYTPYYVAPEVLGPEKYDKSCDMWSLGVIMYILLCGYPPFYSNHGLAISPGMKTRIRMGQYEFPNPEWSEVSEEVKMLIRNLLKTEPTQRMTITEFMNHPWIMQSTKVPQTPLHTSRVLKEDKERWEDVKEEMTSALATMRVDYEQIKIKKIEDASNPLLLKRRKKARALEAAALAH

Row | Structure (SMILES) | inhibition [1] [%] | inhibition [2] [%] | inhibition [3] [%] | inhibition [4] [%] | inhibition [5] [%] | inhibition [6] [%] | inhibition [7] [%] | inhibition [8] [%] | IC50 (Bcr/Abl fusion protein) [nM] | inhibition (Homo sapiens) [%] | inhibition [9] [%] | inhibition [10] [%] | inhibition [11] [%] | inhibition [12] [%] | inhibition [13] [%] | inhibition [14] [%] | IC50 [15] [nM] | inhibition [16] | inhibition [17] [%]
1 | CC(C)n1nc(C#Cc2cccc(NC(=O)c3cccc(C(F)(F)F)c3)c2)c2c(N)ncnc21 | 29 | 36 | 29 | 101 | 2 | 66 | -1 | -1 | 7.5 | -1 | 17 | 0 | 101 | 99 | -3 | -1 | – | – | –
2 | CC(C)n1nc(C#Cc2cccc3cc(-c4cccc(C(F)(F)F)c4)ncc23)c2c(N)ncnc21 | 7 | 3 | 9 | 92 | – | 33 | 5 | -7 | – | 0 | 8 | -2 | 88 | 71 | 2 | 1 | 3 | inactive | 5
